In patent US7148376B2, “Polymorphic forms of nateglinide” (Teva Pharmaceutical Industries Ltd., priority 2002, dated 2006):
“Also recorded” adds a separate entry of the source. Blank lines part the entries; values can stand above or below the compound they belong to.

How the values were obtained:
[1] = Polymorphic stability on storage at room temperature (XRPD); type: physicochemical; settings: storage at room temperature and pressure for about a day
Experimental: The various crystalline forms are also analyzed by Thermal Gravimetric Analysis (TGA). […] In contrast to the above listed forms, TGA profiles of forms L, P, U, α, δ and σ show no significant weight loss. These polymorphic forms of nateglinide are free of bound solvents, i.e., less than about 2% LOD. Table III lists the solvents used for the preparation for nateglinide solvated forms, as well as LOD values based on TGA analysis.
Storage at room temperature and pressure may also cause a transition of one form to another.
(§1) • X-Ray diffraction was performed on X-Ray powder diffractometer, Scintag®, variable goniometer, Cu-tube, solid state detector. Sample holder: A round standard aluminum sample holder with round zero background quartz plate. • The sample was put on the sample holder and immediately analyzed as is. • Scanning parameters: Range: 2–40 deg 2θ, Continuos Scan, Rate: 3 deg./min. DSC: • DSC821^e Mettler Toledo®, Sample weight: 3–5 mg, Heating rate: 10° C./min, Number of holes in the crucible: 3 TGA: • Mettler TG50®, Sample weight: 7–15 mg, Heating rate: 10° C./min FTIR: • Perkin-Elmer®, Spectrum One FTIR spectrometer, Range: 4000–400 cm−1, no. of scans: 16, resolution: 4.0 cm−1, DRIFT technique.

[2] = Thermal stability: polymorphic form after drying or heating (XRPD); type: physicochemical; settings: for crystal form obtained upon drying: drying by heating under ambient or reduced pressure, generally about 40° C. to about 80° C.
Experimental: The various crystalline forms are related to each other in that drying of one form may result in a transformation to another form, namely nateglinide Forms A, B, D, E, F, G, H, I, J, K, L, M, N, Q, S, T, V, Z, α, β, δ, γ, ε, θ and Ω. The drying is carried out by heating a sample under ambient or reduced pressure. Generally, a preferred temperature is from about 40° C. to about 80° C., more preferably under reduced pressure. […] The term “stable” as used herein refers to a polymorphic change of less than about 5% by weight, more preferably less than about 2%, particularly for Form δ.
as §1
Sample of nateglinide form U (˜1 g) was introduced into a 6-gram vial and heated over 8.5 h in a 100° C. oil bath. The vial were extracted from the bath.
Sample of nateglinide form U (˜0.5 g) was heated to 120° C. for 1 h in an atmospheric pressure.
Sample of nateglinide form δ (˜0.5 g) was heated to 120° C. for 1 h in an atmospheric pressure.

[3] = Exposure of nateglinide Form H to solvent vapors; type: physicochemical; settings: vapors of water and acetone, room temperature
Experimental: Some of the crystalline forms are obtained by absorption of solvent vapors. Nateglinide is contacted with vapors of a particular solvent, resulting in absorption of the solvent. Absorption of ethanol results in Form D, methanol in Form O, and DCM in Form Y. Form H was stable in the presence of vapors of water and acetone.
Nateglinide (3.50 g) was added to a polypropylene can and weighed. The can was introduced into a bigger polypropylene container containing a solvent, and stored at room temperature. The can was removed from the container and weighed (Wfinal). The can content was divided into 2 portions. One portion was dried at a temperature of 55° C. and a pressure of 20–30 mmHg to constant weight (±0.01 g).

[4] = cited from earlier work

transition of one form to another on storage ([1]; listed as A): partially converts to Form B
crystal form obtained upon drying ([2]; listed as A): convert to Form B
SMILES: CC(C)[C@H]1CC[C@H](C(=O)N[C@H](Cc2ccccc2)C(=O)O)CC1 [Form A, nateglinide]

thermal stability (conversion to another form upon heating) [2]: thermally stable
SMILES: CC(C)[C@H]1CC[C@H](C(=O)N[C@H](Cc2ccccc2)C(=O)O)CC1 [Form B, nateglinide]

crystal form obtained upon drying ([2]; listed as C): convert to Form B
SMILES: CC(C)[C@H]1CC[C@H](C(=O)N[C@H](Cc2ccccc2)C(=O)O)CC1 [Form C, nateglinide]

crystal form obtained upon drying ([2]; listed as D): convert to Form B
SMILES: CC(C)[C@H]1CC[C@H](C(=O)N[C@H](Cc2ccccc2)C(=O)O)CC1 [Form D, nateglinide]

crystal form obtained upon drying ([2]; listed as E): convert to Form B
SMILES: CC(C)[C@H]1CC[C@H](C(=O)N[C@H](Cc2ccccc2)C(=O)O)CC1 [Form E, nateglinide]

crystal form obtained upon drying ([2]; listed as G): convert to Form B
SMILES: CC(C)[C@H]1CC[C@H](C(=O)N[C@H](Cc2ccccc2)C(=O)O)CC1 [Form G, nateglinide]

thermal stability (conversion to another form upon heating) [2]: thermally stable
stability in the presence of solvent vapors [3]: stable
SMILES: CC(C)[C@H]1CC[C@H](C(=O)N[C@H](Cc2ccccc2)C(=O)O)CC1 [Form H, nateglinide]

transition of one form to another on storage ([1]; listed as I): converts to Form L
SMILES: CC(C)[C@H]1CC[C@H](C(=O)N[C@H](Cc2ccccc2)C(=O)O)CC1 [Form I, nateglinide]

crystal form obtained upon drying ([2]; listed as J): convert to Form B
SMILES: CC(C)[C@H]1CC[C@H](C(=O)N[C@H](Cc2ccccc2)C(=O)O)CC1 [Form J, nateglinide]

crystal form obtained upon drying ([2]; listed as K): convert to Form B
SMILES: CC(C)[C@H]1CC[C@H](C(=O)N[C@H](Cc2ccccc2)C(=O)O)CC1 [Form K, nateglinide]

thermal stability (conversion to another form upon heating) [2]: thermally stable
SMILES: CC(C)[C@H]1CC[C@H](C(=O)N[C@H](Cc2ccccc2)C(=O)O)CC1 [Form L, nateglinide]

thermal stability (conversion to another form upon heating) [2]: somewhat stable
SMILES: CC(C)[C@H]1CC[C@H](C(=O)N[C@H](Cc2ccccc2)C(=O)O)CC1 [Form O, nateglinide]

crystal form obtained upon drying ([2]; listed as Q): convert to Form B
SMILES: CC(C)[C@H]1CC[C@H](C(=O)N[C@H](Cc2ccccc2)C(=O)O)CC1 [Form Q, nateglinide]
transition of one form to another on storage ([1]; listed as Q): converts to Form Y (containing chloroform)

transition of one form to another on storage ([1]; listed as T): converts to Form E
SMILES: CC(C)[C@H]1CC[C@H](C(=O)N[C@H](Cc2ccccc2)C(=O)O)CC1 [Form T, nateglinide]
crystal form obtained upon drying ([2]; listed as T): convert to Form B; also recorded: mixture of Form B and G

thermal stability (conversion to another form upon heating) [2]: thermally stable
crystal form after heating to 120° C. for 1 h ([2]; 120° C., 1 h, atmospheric pressure, XRPD): Form U
SMILES: CC(C)[C@H]1CC[C@H](C(=O)N[C@H](Cc2ccccc2)C(=O)O)CC1 [Form U, nateglinide]
crystal form after heating at about 100° C. ([2]; 100° C. oil bath, 8.5 h, XRPD): does not undergo a transition; also recorded: Form U

thermal stability (conversion to another form upon heating) [2]: somewhat stable
SMILES: CC(C)[C@H]1CC[C@H](C(=O)N[C@H](Cc2ccccc2)C(=O)O)CC1 [Form Y, nateglinide]

crystal form obtained upon drying ([2]; listed as Z): convert to Form B
SMILES: CC(C)[C@H]1CC[C@H](C(=O)N[C@H](Cc2ccccc2)C(=O)O)CC1 [Form Z, nateglinide]

crystal form after drying at 50° C. in a vacuum oven overnight ([2]; 50° C., vacuum oven, overnight, XRD): mixture of Form omega and Form Z
crystal form obtained upon drying ([2]; listed as Ω): convert to Form B
SMILES: CC(C)[C@H]1CC[C@H](C(=O)N[C@H](Cc2ccccc2)C(=O)O)CC1 [Form Ω, nateglinide]

thermal stability (conversion to another form upon heating) [2]: somewhat stable
crystal form obtained upon drying ([2]; listed as α): convert to Form B
SMILES: CC(C)[C@H]1CC[C@H](C(=O)N[C@H](Cc2ccccc2)C(=O)O)CC1 [Form α, nateglinide]

crystal form obtained upon drying ([2]; listed as β): convert to Form B
SMILES: CC(C)[C@H]1CC[C@H](C(=O)N[C@H](Cc2ccccc2)C(=O)O)CC1 [Form β, nateglinide]

thermal stability (conversion to another form upon heating) [2]: somewhat stable
crystal form after heating at 120° C. ([2]; 120° C., 1 atmosphere, 1 h, XRPD): Form B
crystal form obtained upon drying ([2]; listed as δ): convert to Form B
polymorphic form after drying in a fluidized bed drier ([2]; fluidized bed drier, 4 hours at 60° C.): delta
polymorph after drying in a stirred reactor ([2]; stirred reactor 7–10 rpm, 60 mmHg vacuum, 60° C., 6 hours): remained delta form
SMILES: CC(C)[C@H]1CC[C@H](C(=O)N[C@H](Cc2ccccc2)C(=O)O)CC1 [Form δ, nateglinide]

crystal form obtained upon drying ([2]; listed as θ): convert to Form B
SMILES: CC(C)[C@H]1CC[C@H](C(=O)N[C@H](Cc2ccccc2)C(=O)O)CC1 [Form θ, nateglinide]

thermal stability (conversion to another form upon heating) [2]: thermally stable
SMILES: CC(C)[C@H]1CC[C@H](C(=O)N[C@H](Cc2ccccc2)C(=O)O)CC1 [Form σ, nateglinide]

crystal form obtained upon drying [2]: Form B
SMILES: CC(C)[C@H]1CC[C@H](C(=O)N[C@H](Cc2ccccc2)C(=O)O)CC1 [acetonitrile solvate of Form Epsilon, nateglinide]

SMILES: CC(C)[C@H]1CC[C@H](C(=O)N[C@H](Cc2ccccc2)C(=O)O)CC1 [nateglinide, (−)-N-(trans-4-isopropylcyclohexanecarbonyl)-D-Phenylalanine]
solubility in acetonitrile ([4]; acetonitrile): sparingly soluble
solubility in chloroform ([4]; chloroform): freely soluble
solubility in ethanol ([4]; ethanol): freely soluble
solubility in ether ([4]; ether): soluble
solubility in methanol ([4]; methanol): freely soluble
solubility in octanol ([4]; octanol): sparingly soluble
solubility in water ([4]; water): practically insoluble

crystal form obtained upon drying [2]: Forms H or P
SMILES: CC(C)[C@H]1CC[C@H](C(=O)N[C@H](Cc2ccccc2)C(=O)O)CC1 [nitromethane solvates of Form Epsilon, nateglinide]
